Measured values taken from US20140187556A1, “ANTI-AMYLOID COMPOUNDS AND METHODS” (Treventis Corporation, priority 2011, published 2014).

Target: T1, Aβ40 (Homo sapiens, UniProt P05067)
T1 construct: pre-treated Aβ40 (40 μM in 20 mM Tris, pH 7.4)
Test: Thioflavin T (ThT) Aβ aggregation assay
Type: biochemical
Conditions: 20 μM Aβ40, 37 degrees C
Procedure: Aβ40 (1.0 mg) was pre-treated in a 1.5 mL microfuge tube with HFIP (1 mL) and sonicated for 20 min to disassemble any pre-formed Aβ aggregates. The HFIP was removed with a stream of argon and the Aβ dissolved in Tris base (5.8 mL, 20 mM, pH ˜10). The pH was adjusted to 7.4 with concentrated HCl (−10 μL) and the solution filtered using a syringe filter (0.2 μm) before being used.
The kinetic ThT assay for Aβ aggregation is similar to that of Chalifour et al (Chalifour et al, 2003, J. Biol. Chem. 278:34874-81). Briefly, pre-treated Aβ40 (40 μM in 20 mM Tris, pH 7.4), was diluted with an equal volume of 8 μM ThT in Tris (20 mM, pH 7.4, 300 mM NaCl). Aliquots of Aβ/ThT (200 μL) were added to wells of a black polystyrene 96-well plate, followed by 2 μL of a compound in DMSO (variable concentration), or DMSO alone (controls). Incubations were performed in triplicate and were taken to contain 20 μM Aβ, various concentration of compound in 20 mM Tris, pH 7.4, 150 mM NaCl, 1% DMSO. Plates were covered with clear polystyrene lids and incubated at 37 degrees C. in a Tecan Genios microplate reader. Fluorescence readings (λex=450 nm, λem=480 nm) were taken every 15 min., after first shaking at high intensity for 15 s and allowing to settle for 10 s before each reading. Active compounds attenuated the increase in fluorescence over time that occurred in controls.

T1 sequence (P05067 672-711 limits assumed): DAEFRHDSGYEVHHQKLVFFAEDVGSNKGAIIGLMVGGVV

| IC50 [µM] | SMILES |
| --- | --- |
| > 50 | CC(C)Nc1ccc(N2CCN(C(=O)c3ccccc3)CC2)cc1N1CCCC1 [TRV 1157, (4-(4-(isopropyl amino)-3-(pyrrolidin-1-yl)phenyl)piperazin-1-yl)(phenyl)methanone] |
| > 50 | O=C(c1ccccc1)N1CCN(c2ccc(OC(F)F)c(NCc3ccccc3)c2)CC1 [TRV 1184, (4-(3-(benzyl amino)-4-(difluoromethoxy)phenyl)piperazin-1-yl)(phenyl)methanone] |
| 7.08 ± 0.19 | O=[N+]([O-])c1ccc(-c2cccc(C(O)(O)C(F)(F)F)c2)cc1NCc1ccccc1 [TRV 1153, 1-(3′-(benzylamino)-4′-nitro-[1,1′-biphenyl]-3-yl)-2,2,2-trifluoroethane-1,1-diol] |
| > 50 | O=C(c1ccccc1)N1CCN(c2cc(F)c(C(F)(F)F)c(N3CCCC3)c2)CC1 [TRV 1175, (4-(3-fluoro-5-(pyrrolidin-1-yl)-4-(trifluoromethyl)phenyl)piperazin-1-yl)(phenyl)methanone] |
| 10.5 ± 0.75 | NC(=O)c1cccc(-c2ccc([N+](=O)[O-])c(NCc3ccccc3)c2)c1 [TRV 1103, 3′-(benzylamino)-4′-nitrobiphenyl-3-carboxamide] |
| ~10 | O=C(c1ccccc1)N1CCN(c2ccc([N+](=O)[O-])c(N3CCCCC3)c2)CC1 [TRV 1137, (4-(4-nitro-3-(piperidin-1-yl)phenyl)piperazin-1-yl)(phenyl)methanone] |
| > 50 | CC(C)Nc1cc(F)cc(N2CCN(C(=O)c3ccccc3)CC2)c1 [TRV 1179, (4-(3-fluoro-5-(isopropylamino)phenyl)piperazin-1-yl)(phenyl)methanone] |
| > 50 | O=C(c1ccccc1)N1CCN(c2cc(F)c(F)c(N3CCCC3)c2)CC1 [TRV 1156, (4-(3,4-difluoro-5-(pyrrolidin-1-yl)phenyl)piperazin-1-yl)(phenyl)methanone] |
| > 50 | CC(C)Nc1cc(N2CCN(C(=O)c3ccccc3)CC2)ccc1C(F)(F)F [TRV 1166, (4-(3-(isopropylamino)-4-(trifluoromethyl)phenyl)piperazin-1-yl)(phenyl)methanone] |
| > 10 | O=C(c1ccccc1)N1CCN(c2ccc([N+](=O)[O-])c(N3CCOCC3)c2)CC1 [TRV 1138, (4-(3-morpholino-4-nitrophenyl)piperazin-1-yl)(phenyl)methanone] |
| ~50 | CC(O)c1cccc(-c2ccc(C#N)c(N3CCCC3)c2)c1 (stereo not shown) [TRV 1248] |
| > 50 | CCCN(CCC)C(=O)c1cccc(-c2ccc([N+](=O)[O-])c(NCc3ccccc3)c2)c1 [TRV 1130, 3′-(benzylamino)-4′-nitro-N,N-dipropylbiphenyl-3-carboxamide] |
| 12.5 ± 2.79 | O=[N+]([O-])c1ccc(-c2ccccc2-c2nnn[nH]2)cc1NCc1ccccc1 [TRV 1125, N-benzyl-4-nitro-2′-(1H-tetrazol-5-yl)-[1,1′-biphenyl]-3-amine] |
| > 50 | N#Cc1ccc(-c2cccc(C(=O)O)c2)cc1NCc1ccccc1 [TRV 1128, 3′-(benzylamino)-4′-cyanobiphenyl-3-carboxylic acid] |
| > 50 | CC(=O)N1CCN(C(=O)c2cccc(-c3ccc([N+](=O)[O-])c(NCc4ccccc4)c3)c2)CC1 [TRV 1114, 1-(4-(3′-(benzylamino)-4′-nitrobiphenylcarbonyl)piperazin-1-yl)ethanone] |
| > 50 | CCNC(=O)c1cccc(-c2ccc([N+](=O)[O-])c(NCc3ccccc3)c2)c1 [TRV 1116, 3′-(benzylamino)-N-ethyl-4′-nitrobiphenyl-3-carboxamide] |
| > 50 | O=C(c1ccccc1)N1CCN(c2cc(N3CCCC3)cc(C(F)(F)F)c2)CC1 [TRV 1163, phenyl(4-(3-(pyrrolidin-1-yl)-5-(trifluoromethyl)phenyl)piperazin-1-yl)methanone] |
| 16.9 ± 0.52 | CC(C)N(C)c1cc(N2CCN(C(=O)c3ccccc3)CC2)ccc1[N+](=O)[O-] [TRV 1152, (4-(3-(isopropyl(methyl)amino)-4-nitrophenyl)piperazin-1-yl)(phenyl)methanone] |
| ~50 | CC(O)c1cccc(-c2ccc(OC(F)F)c(NCc3ccccc3)c2)c1 (stereo not shown) [TRV 1192, 1-(3′-(benzylamino)-4′-(difluoromethoxy)biphenyl-3-yl)ethanol] |
| ~50 | O=C(c1ccccc1)N1CCN(c2cc(F)c(F)c(NCc3ccccc3)c2)CC1 [TRV 1190, (4-(3-(benzylamino)-4,5-difluorophenyl)piperazin-1-yl)(phenyl)methanone] |
| 6.65 ± 1.97 | O=[N+]([O-])c1ccc(-c2cccc(C(O)C(F)(F)F)c2)cc1N1CCCC1 (stereo not shown) [TRV 1155, 2,2,2-trifluoro-1-(4′-nitro-3′-(pyrrolidin-1-yl)-[1,1′-biphenyl]-3-yl)ethanol] |

| IC50 [µM] | SMILES |
| --- | --- |
| > 50 | N#Cc1cccc(-c2ccc([N+](=O)[O-])c(NCc3ccccc3)c2)c1 [TRV 1136, 3′-(benzylamino)-4′-nitrobiphenyl-3-carbonitrile] |
| 17.9 ± 13.3 | O=C(C1CCN(c2ccc([N+](=O)[O-])c(NCc3ccccc3)c2)CC1)N1CCCC1 [TRV 1133, (1-(3-(benzyl amino)-4-nitrophenyl)piperidin-4-yl)(pyrrolidin-1-yl)methanone] |
| > 50 | O=C(c1ccccc1)N1CCN(c2cc(F)cc(N3CCCC3)c2)CC1 [TRV 1170, (4-(3-fluoro-5-(pyrrolidin-1-yl)phenyl)piperazin-1-yl)(phenyl)methanone] |
| 6.12 ± 2.78 | CC1CN(c2ccc([N+](=O)[O-])c(Nc3ccccc3)c2)CCN1C(=O)c1ccccc1 (stereo not shown) [TRV 1099, (2-methyl-4-(4-nitro-3-(phenylamino)phenyl)piperazin-1-yl)(phenyl)methanone] |
| 11.6 ± 1.24 | CN(c1cc(N2CCN(C(=O)c3ccccc3)CC2)ccc1[N+](=O)[O-])C1CCC1 [TRV 1154, (4-(3-(cyclobutyl(methyl)amino)-4-nitrophenyl)piperazin-1-yl)(phenyl)methanone] |
| > 50 | O=C(c1ccccc1)N1CCN(c2ccc(S(=O)(=O)C(F)(F)F)c(NCc3ccccc3)c2)CC1 [TRV 1186, (4-(3-(benzylamino)-4-((trifluoromethyl)sulfonyl)phenyl)piperazin-1-yl)(phenyl)methanone] |
| > 50 | N#Cc1ccc(N2CCN(C(=O)c3ccccc3)CC2)cc1N1CCCC1 [TRV 1167, 4-(4-benzoylpiperazin-1-yl)-2-(pyrrolidin-1-yl)benzonitrile] |
| 6.47 ± 4.92 | CN(Cc1ccccc1)C(=O)c1cccc(-c2ccc([N+](=O)[O-])c(NCc3ccccc3)c2)c1 [TRV 1118, N-benzyl-3′-(benzylamino)-N-methyl-4′-nitrobiphenyl-3-carboxamide] |
| > 10 | CC(C)Nc1cc(N2CCN(C(=O)c3ccccc3)CC2)ccc1[N+](=O)[O-] [TRV 1144, (4-(3-(isopropylamino)-4-nitrophenyl)piperazin-1-yl)(phenyl)methanone] |
| > 50 | CNC(=O)c1cccc(-c2ccc([N+](=O)[O-])c(NCc3ccccc3)c2)c1 [TRV 1101, 3′-(benzylamino)-N-methyl-4′-nitrobiphenyl-3-carboxamide] |
| > 50 | O=C(c1ccccc1)N1CCN(c2ccc(F)c(N3CCCC3)c2)CC1 [TRV 1162, (4-(4-fluoro-3-(pyrrolidin-1-yl)phenyl)piperazin-1-yl)(phenyl)methanone] |
| > 50 | O=C(c1ccccc1)N1CCN(c2ccc(OC(F)(F)F)c(NCc3ccccc3)c2)CC1 [TRV 1185, (4-(3-(benzylamino)-4-(trifluoromethoxy)phenyl)piperazin-1-yl)(phenyl)methanone] |
| 11.5 ± 0.29 | CN(C)C(=O)C1CCCN(c2ccc([N+](=O)[O-])c(NCc3ccccc3)c2)C1 (stereo not shown) [TRV 1132, 1-(3-(benzylamino)-4-nitrophenyl)-N,N-dimethylpiperidine-3-carboxamide] |
| < 50 | CC(O)c1cccc(-c2ccc(F)c(N3CCCC3)c2)c1 (stereo not shown) [TRV 1246] |
| 31.6 ± 4.8 | O=C(c1ccccc1)N1CCN(c2ccc(Cl)c(Nc3ccccc3)c2)CC1 [TRV 1094, (4-(4-chloro-3-(phenylamino)phenyl)piperazin-1-yl)(phenyl)methanone] |
| > 50 | O=C(O)c1cccc(-c2ccc(Cl)c(Nc3ccccc3)c2)c1 [TRV 1097, 4′-chloro-3′-(phenylamino)-[1,1′-biphenyl]-3-carboxylic acid] |
| > 50 | O=C(c1ccccc1)N1CCN(c2ccc(-n3cnnn3)c(NCc3ccccc3)c2)CC1 [TRV 1178, (4-(3-(benzylamino)-4-(1H-tetrazol-1-yl)phenyl)piperazin-1-yl)(phenyl)methanone] |
| > 10 | CN1CCN(c2cc(N3CCN(C(=O)c4ccccc4)CC3)ccc2[N+](=O)[O-])CC1 [TRV 1146, (4-(3-(4-methylpiperazin-1-yl)-4-nitrophenyl)piperazin-1-yl)(phenyl)methanone] |
| 27.8 ± 27.6 | O=C(C1CCCN(c2ccc([N+](=O)[O-])c(NCc3ccccc3)c2)C1)N1CCCC1 (stereo not shown) [TRV 1131, (1-(3-(benzylamino)-4-nitrophenyl)piperidin-3-yl)(pyrrolidin-1-yl)methanone] |
| 6.49 ± 2.5 | CC(=O)c1cccc(-c2ccc([N+](=O)[O-])c(NCc3ccccc3)c2)c1 [TRV 1124, 1-(3′-(benzylamino)-4′-nitrobiphenyl-3-yl)ethanone] |

Same assay, conditions: 50 μM compound

| inhibition at 50 µM [%] | SMILES |
| --- | --- |
| 47.9 | CC(O)c1cccc(-c2ccc(C#N)c(N3CCCC3)c2)c1 (stereo not shown) [TRV 1248] |
| 56.8 | CC(O)c1cccc(-c2ccc(F)c(N3CCCC3)c2)c1 (stereo not shown) [TRV 1246] |
